Source: ChEMBL document CHEMBL6134865, “Rational Design of Methylene Blue-Raloxifene Conjugates for Efficient Breast Tumor Elimination Triggered by ERα Degradation” (J Med Chem, 2025)
Active and inactive are the calls of the source. No cut-off for these calls is given here.

Legend:
MCF7 [1] = assay: Antitumor activity against human MCF7 cells xenografted in female BALB/c mouse model assessed as tumor growth inhibition at 5 mg/kg, iv measured after 14 days relative to control; type: functional; conditions: MCF7, 336 h, time 14 day, read-out: TGI
[2] = Toxicity in female BALB/c mouse xenografted with human MCF7 cells assessed as change in ALT level at 5 mg/kg, iv measured after 14 days; type: organism-based; conditions: in vivo, 336 h, time 14 day
[3] = Toxicity in female BALB/c mouse xenografted with human MCF7 cells assessed as change in AST level at 5 mg/kg, iv measured after 14 days; type: organism-based; conditions: in vivo, 336 h, time 14 day
[4] = Toxicity in female BALB/c mouse xenografted with human MCF7 cells assessed as change in blood urea nitrogen level at 5 mg/kg, iv measured after 14 days; type: organism-based; conditions: in vivo, 336 h, time 14 day
[5] = Toxicity in female BALB/c mouse xenografted with human MCF7 cells assessed as change in creatinine level at 5 mg/kg, iv measured after 14 days; type: organism-based; conditions: in vivo, 336 h, time 14 day
[6] = Toxicity in female BALB/c mouse xenografted with human MCF7 cells assessed as change in body weight at 5 mg/kg, iv measured after 14 days; type: organism-based; conditions: in vivo, 336 h, time 14 day
MCF7 [7] = assay: cells; conditions: Homo sapiens, MCF7, light or radiation study
Description: Antiproliferative activity against human MCF7 cells assessed as inhibition of cell proliferation incubated for 48 hrs with 660 nm 0.4 W/cm2 light irradiation for 1 min at 6th hr of incubation time by MTT assay

MCF7 [8] = assay: cells; conditions: Homo sapiens, MCF7, light or radiation study; remark: listed apart in the source
Description: Antiproliferative activity against human MCF7 cells assessed as inhibition of cell proliferation incubated for 48 hrs with 660 nm 0.4 W/cm2 light irradiation for 2 min at 6th hr of incubation time by MTT assay

MCF7 [9] = assay: cells; conditions: Homo sapiens, MCF7, light or radiation study; remark: listed apart in the source
Description: Antiproliferative activity against human MCF7 cells assessed as inhibition of cell proliferation incubated for 48 hrs with 660 nm 0.4 W/cm2 light irradiation for 4 min at 6th hr of incubation time by MTT assay

MCF7 [10] = assay: cells; conditions: Homo sapiens, MCF7, light or radiation study; remark: listed apart in the source
Description: Antiproliferative activity against human MCF7 cells assessed as inhibition of cell proliferation incubated for 48 hrs with 660 nm 0.4 W/cm2 light irradiation for 5 min at 6th hr of incubation time by MTT assay

MCF7 [11] = assay: cells; conditions: Homo sapiens, MCF7, light or radiation study; remark: listed apart in the source
Description: Antiproliferative activity against human MCF7 cells assessed as inhibition of cell proliferation incubated for 48 hrs with 660 nm 0.4 W/cm2 light irradiation for 3 min at 6th hr of incubation time by MTT assay

MCF7 [12] = assay: cells; conditions: Homo sapiens, MCF7, 48 h
Description: Antiproliferative activity against human MCF7 cells assessed as inhibition of cell proliferation incubated for 48 hrs by MTT assay

[13] = Induction of ROS generation in water assessed as decrease in ABDA absorption peak at 5 uM irradiated with 660 nm 0.4 W/cm2 light up to 5 mins by ABDA probe based UV-vis absorption spectra analysis; type: functional
MCF7 [14] = assay: Induction of ROS generation in human MCF7 cells assessed as cell percentage with elevated ROS at 1 uM incubated for 6 hrs followed by irradiation with 660 nm 0.4 W/cm2 light for 2 min by DCFH-DA probe based flow cytometric analysis (reference value: 0.2 %); type: functional; conditions: time 362 min, 6.033 h
[15] = Induction of ROS generation in water at 1 uM irradiated with 660 nm 0.4 W/cm2 light up to 180 sec by DCFH probe based fluorescence spectra analysis; type: functional
in vivo [16] = conditions: Sprague-Dawley, rat, po, 15 mg/kg
Description: Cmax in Sprague-Dawley rat at 15 mg/kg, po administered via gavage and measured after 0.5 to 168 hrs by LC-MS analysis

in vivo [17] = conditions: Sprague-Dawley, rat, po, 15 mg/kg; remark: listed apart in the source
Description: AUC (0 to infinity) in Sprague-Dawley rat at 15 mg/kg, po administered via gavage and measured after 0.5 to 168 hrs by LC-MS analysis

in vivo [18] = conditions: Sprague-Dawley, rat, iv, 5 mg/kg
Description: AUC (0 to infinity) in Sprague-Dawley rat at 5 mg/kg, iv measured after 0.5 to 168 hrs by LC-MS analysis

in vivo [19] = conditions: Sprague-Dawley, rat, iv, 5 mg/kg; remark: listed apart in the source
Description: Volume of distribution at steady state in Sprague-Dawley rat at 5 mg/kg, iv measured after 0.5 to 168 hrs by LC-MS analysis

in vivo [20] = conditions: Sprague-Dawley, rat, po, 15 mg/kg; remark: listed apart in the source
Description: Tmax in Sprague-Dawley rat at 15 mg/kg, po administered via gavage and measured after 0.5 to 168 hrs by LC-MS analysis

in vivo [21] = conditions: Sprague-Dawley, rat, iv, 5 mg/kg; remark: listed apart in the source
Description: Cmax in Sprague-Dawley rat at 5 mg/kg, iv measured after 0.5 to 168 hrs by LC-MS analysis

[22] = Photothermal effect of compound in water assessed as increase in solution temperature at 0.5 to 10 uM in presence of 660 nm 0.4 W/cm2 light irradiation; type: functional; conditions: dose 0.5-10 µM, time <= 5.0 min
[23] = Photothermal effect of compound in water assessed as increase in solution temperature measured up to 5 mins in presence of 660 nm 0.4 W/cm2 light irradiation; type: functional; conditions: dose 0.5-10 µM

| SMILES | IC50 (MCF7 [7]) | IC50 (MCF7 [8]) | IC50 (MCF7 [9]) | IC50 (MCF7 [10]) | IC50 (MCF7 [11]) | IC50 (MCF7 [12]) | Activity [13] | Activity (MCF7 [14]) | Activity [15] | other results |
| --- | --- | --- | --- | --- | --- | --- | --- | --- | --- | --- |
| C[C@]12CC[C@@H]3c4ccc(O)cc4C[C@@H](CCCCCCCCC[S+]([O-])CCCC(F)(F)C(F)(F)F)[C@H]3[C@@H]1CC[C@@H]2O (some centres undefined) [FULVESTRANT] | – | – | – | – | – | – | – | – | – | inhibition in vivo at 5 mg/kg (MCF7 [1]): 95.4%; Activity [2]: Non-toxic; Activity [3]: Non-toxic; Activity [4]: Non-toxic; Activity [5]: Non-toxic; Activity [6]: Non-toxic |
| CN(C)c1ccc2nc3ccc(N(C)C)cc3[s+]c2c1 [METHYLENE BLUE ANHYDROUS] | > 100 µM | > 100 µM | 6.76 µM | 5.53 µM | 14.1 µM | > 100 µM | – | – | – | – |
| CCN(CC)c1ccc2nc3c4ccccc4/c(=N\CCCCC(=O)NCCCOc4ccc(C(=O)c5c(-c6ccc(O)cc6)sc6cc(O)ccc56)cc4)cc-3sc2c1 | 4.67 µM | 0.93 µM | 0.38 µM | 0.33 µM | 0.72 µM | > 100 µM | Active | 4.8% | Active | – |
| CC/C(=C(\c1ccccc1)c1ccc(OCCN(C)C)cc1)c1ccccc1 [TAMOXIFEN] | – | – | – | – | – | – | – | – | – | Cmax (in vivo [16]): 11.7 ng/mL; AUC(0-inf) (in vivo [17]): 311 ng·h/mL; AUC(0-inf) (in vivo [18]): 295 ng·h/mL; Vd (in vivo [19]): 221 L/kg; Tmax (in vivo [20]): 16 h; Cmax (in vivo [21]): 15.9 ng/mL |
| O=C(c1ccc(OCCN2CCCCC2)cc1)c1c(-c2ccc(O)cc2)sc2cc(O)ccc12 [RALOXIFENE] | – | – | – | – | – | 6.7 µM | – | – | – | – |
| CCN(CC)c1ccc2nc3c4ccccc4/c(=N\CCC(=O)NCCCOc4ccc(C(=O)c5c(-c6ccc(O)cc6)sc6cc(O)ccc56)cc4)cc-3sc2c1 | 5.53 µM | 3.85 µM | 1.34 µM | 0.63 µM | 1.78 µM | > 100 µM | Active | 4.2% | Active | Activity [22]: Time-dependent-effect; Activity [23]: Dose-dependent-effect |
